Data set [1] has as its system MCF-7 intracranial tumor. The data set can be described thus: Growth inhibition in MCF-7 intracranial tumor model in mice. The note with it: 250 mg/kg SC once weekly. The procedure:
Animal information: NPG mice (female, 6-8 weeks, body weight: about 17-29 g) were purchased from Beijing Vitalstar Biotechnology Co., Ltd. The mice were fed in SPF environment and each cage position was individually ventilated.
Cell culture: The human breast cancer MCF-7 cell line was cultured in vitro in EMEM (cell culture medium) supplemented with 10% fetal bovine serum, 1% Pen Strep and 10 µg/ml recombinant human insulin in a 37° C., 5% CO2 incubator. Conventional digestion treatment with 0.25% trypsin-EDTA digestion solution was carried out twice weekly for passage. When the cell saturation was 80%-90%, and the number reached the requirement, the cells were collected and counted.
Cell inoculation: 15 µl/(containing 2 × 10^6) MCF-7 cell suspension was inoculated into the brain of mice using a stereotaxic apparatus, a micro-injection pump and a miniature handheld cranial drill, and the mice were subcutaneously inoculated with 17β-estradiol tablets three days before the cell inoculation. On day 8 after cell inoculation, the mice were randomized into groups for administration according to the body weight thereof, and the day of grouping was Day 0.
11 mice were in the vehicle group and 8 mice were in the administration group. Mice in all groups were continuously administered until the mice died, which were euthanized due to poor state or the end of the experiment.
The body weight of the mice was measured twice weekly, and the survival status of the mice was observed.
At the end of the experiment on Day 48, all mice were euthanized.

The test system of data set [2] is MCF7 cells. The data set can be described thus: Inhibition of the proliferation of MCF7 cells (CellTiter-Glo). Format: cell-based. The following applies: Homo sapiens, MCF7, 168 h; 7 days treatment; read-out: MCF-7 cell proliferation inhibition IC50. The procedure:
The purpose of the experiment is to determine the inhibitory effect of the compounds of the present invention on the proliferation of MCF7 cells in vitro, and to evaluate the activity of the compounds according to IC50 and maximum inhibitory efficiency.
MCF7 cells (ATCC, HTB-22) were cultured in DMEM (Gibco, 11995-065) complete medium containing 10% fetal bovine serum. On the first day of the experiment, MCF7 cells were inoculated in a 384-well plate at a density of 500 cells/well using the complete medium, and cultured in a 37° C., 5% CO2 cell incubator overnight. The next day, the compounds to be tested were added for drug treatment, and the compound solution with a stock concentration of 10 mM was diluted with Echo550 (Labcyte Inc.) and transferred to each cell culture well. Each compound with the starting concentration for treatment of 100 nM in cells was subjected to 3-fold gradient dilution with 9 concentration points. A blank control containing 0.3% DMSO was set, and double replicate wells as controls were set at each concentration point. The culture was cultured in a 37° C., 5% CO2 cell incubator for 7 days, and the cell culture plate was taken out on day 8.
(In ATP-based viability assays light output follows the ATP content of the culture.)

The target in data set [3] is estrogen receptors in MCF7 cells (Homo sapiens (Human), UniProt P03372). The data set can be described thus: Degradation of estrogen receptors in MCF7 cells (in-cell western). It counts as cell-based. The following applies: for DC50: 24 hours treatment, read-out: ER level DC50; for Dmax: 24 hours, 0.1 µM fulvestrant = 100% degradation control, read-out: Maximum degradation rate. The procedure:
The purpose of the experiment is to determine the degradation activity of the compounds of the present invention on endogenously expressed estrogen receptors in MCF7 cells, and to evaluate the activity of the compounds according to DC50 and maximum degradation efficiency.
MCF7 cells (ATCC, HTB-22) were cultured in DMEM (Gibco, 11995-065) complete medium containing 10% fetal bovine serum. On the first day of the experiment, MCF7 cells were inoculated in a 384-well plate at a density of 3000 cells/well using the complete medium, and cultured in a 37° C., 5% CO2 cell incubator. The compounds to be tested were dissolved in DMSO with a stock concentration of 10 mM, the solution was diluted with Echo 550 (Labcyte Inc.) and added to the cell culture plate. Each compound with the starting concentration for treatment of 100 nM was subjected to 3-fold gradient dilution with 9 concentration points. A blank control containing 0.5% DMSO was set, and double replicate wells as controls were set at each concentration point. The culture was cultured in a 37° C., 5% CO2 cell incubator for 24 hours. Paraformaldehyde was added to the cell culture medium in each cell culture well, and the final concentration of paraformaldehyde was about 3.7% to fix the cells. After the mixture was reacted for 30 minutes, the supernatant was discarded, and 50 µL of PBS was added to each well for washing once. The cells were treated with PBS containing 0.5% v/v Tween-20 for 30 minutes, and washed with PBS once. A blocking solution (PBS containing 5% BSA, 0.05% Tween-20) was added, and the mixture was incubated at room temperature for 1 hour. The blocking solution was removed, a mixture solution of primary antibodies (anti-ER mAb, Estrogen Receptor α (D8H8) Rabbit mAb, GST, # 8644S, 1 : 1000 dilution; anti-GAPDH mAb, GAPDH(D4C6R) Mouse mAb, GST, #97166S, 1 : 2000 dilution) was added, and the mixture was incubated at room temperature for 3 hours. The culture was washed with PBST (PBS containing 0.05% Tween-20) 3 times. Secondary antibodies for detection (800CW-goat anti-rabbit IgG, LI-COR, P/N: 926-32211, 1 : 1000 dilution; 680RD-goat anti-mouse IgG, LI-COR, #925-68070, 1 : 1000 dilution) were added, and the mixture was incubated at room temperature and in the dark for 45 minutes. After washing with PBST 3 times, the fluorescence signal of each well was read using Odyssey CLx, and the value of Chanel 800 (ER)/Chanel 680 (GAPDH) was calculated. The wells treated with 0.1 µM fulvestrant were used as the 100% degradation control, and the degradation rate at each concentration point was calculated. The data were analyzed and processed by XlLfit, and the degradation activity DC50 and the maximum degradation rate Imax of each compound were calculated.

Results on five molecules are retold here after patent US20230348459A1, “PYRROLIDINE COMPOUND AND USE THEREOF” (SIMCERE PHARMACEUTICAL CO., LTD., priority 2020, published 2023).

The structures appear in SMILES notation.

Chain of estrogen receptors in MCF7 cells (P03372 whole entry): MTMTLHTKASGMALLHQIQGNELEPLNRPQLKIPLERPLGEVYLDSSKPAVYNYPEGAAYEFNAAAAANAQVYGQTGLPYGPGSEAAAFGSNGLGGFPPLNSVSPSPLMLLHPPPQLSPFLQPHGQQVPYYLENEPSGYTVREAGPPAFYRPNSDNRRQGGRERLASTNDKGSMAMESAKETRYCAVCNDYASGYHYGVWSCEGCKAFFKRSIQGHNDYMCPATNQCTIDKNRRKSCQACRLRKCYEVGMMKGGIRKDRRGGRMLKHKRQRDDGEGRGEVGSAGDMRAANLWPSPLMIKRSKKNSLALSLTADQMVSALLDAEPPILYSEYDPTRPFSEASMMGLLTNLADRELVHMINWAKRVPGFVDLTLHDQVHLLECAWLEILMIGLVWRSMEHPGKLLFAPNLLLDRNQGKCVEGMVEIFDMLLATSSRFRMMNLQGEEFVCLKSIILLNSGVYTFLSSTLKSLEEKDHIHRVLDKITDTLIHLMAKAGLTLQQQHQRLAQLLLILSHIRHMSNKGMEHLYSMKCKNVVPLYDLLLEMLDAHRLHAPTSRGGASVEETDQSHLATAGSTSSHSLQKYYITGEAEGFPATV

Take `C[C@]12CC[C@@H]3c4ccc(O)cc4C[C@@H](CCCCCCCCC[S+]([O-])CCCC(F)(F)C(F)(F)F)[C@H]3[C@@H]1CC[C@@H]2O` (some centres unmarked) [Fulvestrant, reference compound]: in data set [1], the “Body weight of mice” value is on record as “continued to lose weight” and the Median survival period is recorded as 29.5 days.
As for `C[C@@H]1CN(CCCF)C[C@H]1Nc1cc(F)c([C@@H]2c3[nH]c4ccccc4c3C[C@@H](C)N2CC(F)(F)F)c(F)c1` (stereo in doubt) [Example 6, trans-N-[3,5-difluoro-4-[(1S,3R)-3-methyl-2-(2,2,2-trifluoroethyl)-1,3,4,9-tetrahydropyridino[3,4-b]indol-1-yl]phenyl]-1-(3-fluoropropyl)-4-methyl-pyrrolidin-3-amine], the IC50 in data set [2] is 2.39 nM. Besides, in data set [3], the DC50 was 0.5 nM and the Dmax was determined as 90%.
On to `C[C@@H]1Cc2c([nH]c3ccccc23)[C@@H](c2c(F)cc(N[C@@H]3CN(CCCF)C[C@H]3F)cc2F)N1CC(F)(F)F` (stereo in doubt) [Example 5, trans-N-(3,5-difluoro-4-((1S,3R)-3-methyl-2-(2,2,2-trifluoroethyl)-2,3,4,9-tetrahydro-1H-pyridino[3,4-b]indol-1-yl)phenyl)-4-fluoro-1-(3-fluoropropyl)pyrrolidin-3-amine], for which the IC50 in data set [2] turned out to be 2.57 nM. Also, in data set [3], the DC50 stood at 0.58 nM and the Dmax is 80%.
For `C[C@@H]1Cc2c([nH]c3ccccc23)[C@@H](c2ccc(NC3CCN(CCCF)C3)cn2)N1CC(F)(F)F` (stereo partly drawn) [Example 1, N-(1-(3-fluoropropyl)pyrrolidin-3-yl)-6-((1S,3R)-3-methyl-2-(2,2,2-trifluoroethyl)-2,3,4,9-tetrahydro-1H-pyridino[3,4-b]indol-1-yl)pyridine-3-amine] the same measures were 0.58 nM, 0.41 nM and 106%.
For `C[C@@H]1Cc2c([nH]c3ccccc23)[C@@H](c2ccc(N[C@@H]3CCN(CCCF)C3)cn2)N1CC(F)(F)F` [Example 2] the same measures were 15 nM, 8.5 nM and 92%.

For orientation: DC50 means the midpoint of the concentration-degradation curve.
